What was measured:
[1] = tested on: T. b. brucei, T. cruzi, Leishmania infantum, Plasmodium falciparum; experiment: In vitro biological evaluation against protozoa; format: cell-based; settings: in vitro protozoa panel
TbMCA2 = molecular target: T1, TbMCA2 (Trypanosoma brucei brucei, UniProt Q8T8E7); experiment: In vitro inhibition of TbMCA2; format: biochemical; settings: P1 tail modification / peptoid backbone
T1 sequence (Q8T8E7 1-347): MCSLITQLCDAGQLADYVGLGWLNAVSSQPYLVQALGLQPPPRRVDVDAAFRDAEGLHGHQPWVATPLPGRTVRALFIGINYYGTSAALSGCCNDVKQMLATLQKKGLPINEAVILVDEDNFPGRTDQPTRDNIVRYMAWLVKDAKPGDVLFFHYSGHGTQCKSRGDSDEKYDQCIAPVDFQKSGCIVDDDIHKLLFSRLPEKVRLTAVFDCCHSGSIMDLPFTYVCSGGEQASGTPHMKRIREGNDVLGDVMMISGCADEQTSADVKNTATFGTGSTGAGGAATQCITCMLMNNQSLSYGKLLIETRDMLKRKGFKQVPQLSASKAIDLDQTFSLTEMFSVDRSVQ

[2] = tested on: Plasmodium falciparum (ring stage and schizont); experiment: In vitro antiparasitic evaluation against Plasmodium falciparum; format: cell-based
[3] = tested on: human lung fibroblasts (MRC-5); experiment: Cytotoxicity on human lung fibroblasts; format: cell-based

| Compound | Antiparasitic activity (in words) [1] | Antiparasitic activity against P. falciparum (in words) [2] | also measured |
| --- | --- | --- | --- |
| N#C[C@H](CCCNC(=N)N)NC(=O)OCc1ccccc1 [Compound 1] | no antiparasitic activity |  |  |
| N#C[C@H](Cc1ccc(N)cc1)NC(=O)OCc1ccccc1 [Compound 2] |  |  | Activity on TbMCA2 (in words) (TbMCA2): inactive |
| N#C[C@H](Cc1ccc(NC(=N)N)cc1)NC(=O)OCc1ccccc1 [Compound 3] |  |  | Activity on TbMCA2 (in words) (TbMCA2): inactive |
| N=C(N)NCCC[C@H](NC(=O)OCc1ccccc1)C(=O)c1nc2ccccc2s1 [Compound 11] |  | very modest | Cytotoxicity (in words) [3]: without cytotoxicity |
| Cn1c(C(=O)[C@H](CCCNC(=N)N)NC(=O)OCc2ccccc2)nc2ccccc21 [Compound 14] |  | very modest |  |
| N=C(N)NCCC[C@@H](/C=C/S(=O)(=O)c1ccccc1)NC(=O)OCc1ccccc1 [Compound 15] |  | modest antiparasitic activity |  |
| NCCCC[C@H](NC(=O)OCc1ccccc1)C(=O)c1nc2ccccc2s1 [Compound 16] | modest antiparasitic activities |  |  |
| N=C(N)NCCCC[C@H](NC(=O)OCc1ccccc1)C(=O)c1nc2ccccc2s1 [Compound 17] | modest antiparasitic activities |  |  |
